Marks after values point to notes of the source that are not given here.
What was measured:
[1] = tested on: Erysiphe graminis f. sp. tritici; test: Test L: wheat powdery mildew, preventive spray on wheat seedlings
Plasmopara viticola = test: Test D: grape downy mildew, spray after inoculation of grape seedlings; format: in vivo
Source text: Upon removal, disease ratings were made. […] A dash (-) indicates no test results.

fusarium graminearium = test: Test I: wheat head scab, preventive spray on wheat seedlings
Procedure: (the causal agent of wheat head scab) and incubated in a saturated atmosphere at 20° C. for 72 h, and then moved to a growth chamber at 22° C. for 5 days, after which disease ratings were made.

[2] = tested on: Colletotrichum orbiculare; test: Test B: cucumber Colletotrichum anthracnose, preventive spray on cucumber seedlings; conditions: for Test B disease control rating: 40 ppm (marked *), 100 = 100% disease control, 0 = no control
Botrytis cinerea = test: Test E: tomato botrytis, preventive spray on tomato seedlings
Pythium aphanidermatum = test: Test A: bluegrass pythium blight, preventive spray on bluegrass seedlings
Rhizoctonia oryzae = test: Test G: turf brown patch, preventive spray on creeping bent grass seedlings
Procedure: (the causal agent of turf brown patch) and incubated in a saturated atmosphere at 27° C. for 24 h, and then moved to a growth chamber at 27° C. for 5 days, after which disease ratings were made.

[3] = tested on: Puccinia recondita f. sp. tritici; test: Test K: wheat leaf rust, preventive spray on wheat seedlings
Septoria tritici = test: Test J: wheat leaf blotch, preventive spray on wheat seedlings; format: in vivo
Source text: A dash (-) indicates no test results.

Phytophthora infestans = test: whole plant or invertebrate; format: in vivo
Septoria nodorum = test: Test H: wheat glum blotch, preventive spray on wheat seedlings
Procedure: (the causal agent of wheat glum blotch) and incubated in a saturated atmosphere at 20° C. for 48 h, and then moved to a growth chamber at 22° C. for 5 days, after which disease ratings were made.

[4] = 40 ppm (marked *), 100 = 100% disease control, 0 = no control
[5] = 200 ppm, 100 = 100% disease control, 0 = no control relative to controls

SMILES	Test L disease control rating [1, 4]	Test D disease control rating (Plasmopara viticola; [4])	Test I disease control rating (fusarium graminearium; [4])	Test B disease control rating [2]	Test A disease control rating (Pythium aphanidermatum; [4])	Test G disease control rating (Rhizoctonia oryzae; [4])	Test K disease control rating [3, 4]	Test J disease control rating (Septoria tritici; [4])	Test F disease control rating (Phytophthora infestans; [4])	Test H disease control rating (Septoria nodorum; [4])	Test I disease control rating (fusarium graminearium; [5]) [%]	Test E disease control rating (Botrytis cinerea; [4])	Test A disease control rating (Pythium aphanidermatum; [5]) [%]	Test F disease control rating (Phytophthora infestans; [5]) [%]	further results
CC(C)Cn1c(-c2c(F)cccc2F)c(Br)nc(-n2cccn2)c1=O [Compound 99, 5-Bromo-6-(2,6-difluorophenyl)-1-(2-methylpropyl)-3-(1H-pyrazol-1-yl)-2(1H)-pyrazinone]	–	–	–	–	–	–	–	–	–	–	–	–	–	–	pest or weed control at 200 ppm ([1]; Blumeria graminis, in Triticum aestivum, 168 h, read-out: Test L disease control rating, 200 ppm): 100%; pest or weed control at 200 ppm (Plasmopara viticola; Plasmopara viticola, 168 h, 200 ppm, read-out: Test D disease control rating): 0%; pest or weed control at 200 ppm (fusarium graminearium; Fusarium, in Triticum aestivum, topical, 192 h, read-out: Test I disease control rating, 200 ppm): 0%; pest or weed control at 200 ppm ([2]; Colletotrichum orbiculare, in Cucumis sativus, 144 h, read-out: Test B disease control rating, 200 ppm): 99%; pest or weed control at 200 ppm (Botrytis cinerea; Botrytis cinerea, in Solanum lycopersicum, topical, 72 h, read-out: Test E disease control rating): 100%; pest or weed control at 200 ppm (Pythium aphanidermatum; Pythium aphanidermatum, 120 h, read-out: Test A disease control rating): 0%; pest or weed control at 200 ppm (Rhizoctonia oryzae; Waitea circinata, in Agrostis stolonifera, topical, 144 h, read-out: Test G disease control rating, 200 ppm): 82%; pest or weed control at 200 ppm ([3]; Puccinia recondita, in Triticum aestivum, 192 h, read-out: Test K disease control rating): 100%; pest or weed control at 200 ppm (Septoria tritici; Zymoseptoria tritici, 528 h, 200 ppm, read-out: Test J disease control rating): 100%; pest or weed control at 200 ppm (Phytophthora infestans; Phytophthora infestans, in Solanum lycopersicum, topical, 144 h, read-out: Test F disease control rating): 0%; pest or weed control at 200 ppm (Septoria nodorum; Parastagonospora nodorum, in Triticum aestivum, topical, 168 h, read-out: Test H disease control rating, 200 ppm): 100%
CC(C)(C)Cn1c(-c2c(F)cccc2F)c(Cl)nc(-n2cccn2)c1=O [compound 59]	–	–	–	–	–	–	–	–	–	–	–	–	–	–	Test L disease control rating ([1]; 40 ppm (*)): 98* %; Test D disease control rating (Plasmopara viticola; 200 ppm): 0%; Test I disease control rating (fusarium graminearium; 200 ppm): 0%; Test E disease control rating (Botrytis cinerea; 40 ppm (*)): 100* %; Test A disease control rating (Pythium aphanidermatum; 200 ppm): 0%; Test G disease control rating (Rhizoctonia oryzae; 40 ppm (*)): 49* %; Test K disease control rating ([3]; 40 ppm (*)): 94* %; Test J disease control rating (Septoria tritici; 40 ppm (*)): 100* %; Test F disease control rating (Phytophthora infestans; 200 ppm): 0%; Test H disease control rating (Septoria nodorum; 40 ppm (*)): 73* %
Cc1ccc(-n2c(-c3c(F)cccc3F)c(Cl)nc(-n3ccc(C)n3)c2=O)c(C)c1 [compound 335]	71* %	0* %	0* %	0* %	0* %	0* %	91* %	99* %	0* %	98* %	–	–	–	–	–
O=c1c(-n2cccn2)nc(Cl)c(-c2c(F)cccc2F)n1-c1cccc(F)c1 [compound 337]	0* %	0* %	0* %	76* %	0* %	29* %	95* %	100* %	0* %	99* %	–	–	–	–	–
Cc1ccn(-c2nc(Cl)c(-c3c(F)cccc3F)n(-c3cccc(F)c3)c2=O)n1 [compound 338]	0* %	0* %	0* %	80* %	0* %	16* %	99* %	98* %	0* %	100* %	–	–	–	–	–
O=c1c(-n2cccn2)nc(Cl)c(-c2c(F)cccc2F)n1-c1ccccc1F [compound 339]	0* %	0* %	0* %	0* %	0* %	0* %	89* %	100* %	0* %	99* %	–	–	–	–	–
Cc1ccn(-c2nc(Cl)c(-c3c(F)cccc3F)n(-c3ccccc3F)c2=O)n1 [compound 340]	0* %	0* %	0* %	0* %	0* %	0* %	95* %	95* %	0* %	99* %	–	–	–	–	–
Cc1ccn(-c2nc(Cl)c(-c3c(F)cccc3F)n(Cc3ccc(F)cc3)c2=O)n1 [compound 341]	63* %	79* %	0* %	52* %	0* %	0* %	100* %	98* %	0* %	99* %	–	–	–	–	–
COc1ccccc1-n1c(-c2c(F)cccc2F)c(Cl)nc(-n2cccn2)c1=O [compound 393]	0* %	–	–	41* %	–	0* %	89* %	33* %	–	73* %	0	29* %	0	0	–
COc1cccc(-n2c(-c3c(F)cccc3F)c(Cl)nc(-n3cccn3)c2=O)c1 [compound 394]	99* %	–	–	99* %	–	47* %	100* %	100* %	–	100* %	78	99* %	0	0	–
COc1ccc(-n2c(-c3c(F)cccc3F)c(Cl)nc(-n3cccn3)c2=O)cc1 [compound 395]	0* %	–	–	57* %	–	0* %	99* %	99* %	–	95* %	0	80* %	0	0	–
O=c1c(-n2cccn2)nc(Cl)c(-c2c(F)cccc2F)n1-c1ccccc1OC(F)(F)F [compound 396]	91* %	–	–	13* %	–	0* %	94* %	85* %	–	89* %	0	70* %	0	0	–
O=c1c(-n2cccn2)nc(Cl)c(-c2c(F)cccc2F)n1-c1ccccc1OC(F)(F)F [compound 397]	0* %	–	–	37* %	–	0* %	80* %	94* %	–	94* %	0	99* %	0	0	–
O=c1c(-n2cccn2)nc(Cl)c(-c2c(F)cccc2F)n1-c1ccc(OC(F)(F)F)cc1 [compound 398]	78* %	–	–	56* %	–	24* %	97* %	97* %	–	75* %	0	98* %	0	0	–
O=c1c(-n2cccn2)nc(Cl)c(-c2c(F)cccc2F)n1-c1ccccc1C(F)(F)F [compound 399]	93* %	–	–	88* %	–	24* %	99* %	100* %	–	90* %	0	97* %	0	0	–
